Assay results reported in patent US12466822B2, “Heterocyclic compounds as immunomodulators” (Incyte Corporation, priority 2016, dated 2025).

biological target: T1, PD-1/PD-L1 protein/protein interaction (recombinant human PD-L1 protein (19-238), recombinant human PD-1 protein (25-167)) (Homo sapiens, UniProt Q9NZQ7); assay: PD-1/PD-L1 Homogeneous Time-Resolved Fluorescence (HTRF) Binding Assay; conditions: 25° C., PBS buffer (pH 7.4), 40 minutes preincubation with inhibitors
T1 construct: Recombinant human PD-L1 protein (19-238) with a His-tag at the C-terminus; purchased AcroBiosystems PD1-H5229 (PD-L1-His); PD1-H5257 (PD-1-Fc)
Summary of the method: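 HTRF read-out (665/620 nm) after 60 min at 25 °C with 1 nM Eu anti-human IgG and 20 nM APC anti-His. Beforehand, inhibitors were preincubated 40 min with Fc-PD-1 (25-167, […] as listed) and His-PD-L1 (19-238, 10 nM) in PBS pH 7.4 with Tween-20, BSA, 1% DMSO; IC50 from log-concentration curve.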

T1 sequence (Q9NZQ7 19-238): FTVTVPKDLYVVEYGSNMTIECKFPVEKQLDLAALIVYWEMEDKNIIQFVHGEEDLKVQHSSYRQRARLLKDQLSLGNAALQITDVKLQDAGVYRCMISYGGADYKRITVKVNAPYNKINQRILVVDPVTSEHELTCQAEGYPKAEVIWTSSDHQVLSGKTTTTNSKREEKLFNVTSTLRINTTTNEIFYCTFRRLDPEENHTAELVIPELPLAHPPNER

IC50, ≤ 10 nM:
Cc1c(Nc2nccc3cc(CNCCO)cnc23)cccc1-c1cccc(Nc2nccc3cc(CN4CC[C@@H](C(=O)O)C4)cnc23)c1C [Example 11, (R)-1-((8-((3′-((3-(((2-hydroxyethyl)amino)methyl)-1,7-naphthyridin-8-yl)amino)-2,2′-dimethyl-[1,1′-biphenyl]-3-yl)amino)-1,7-naphthyridin-3-yl)methyl)pyrrolidine-3-carboxylic acid]
Cc1c(NC(=O)c2nc3c(n2C)CCN(C2CCC(C(=O)O)CC2)C3)cccc1-c1cccc(Nc2nccc3cc(CN4CC[C@@H](O)C4)cnc23)c1C (single isomer, unassigned) [Example 64-peak1]
Cc1c(Nc2ncnc3cc(CN4CC[C@@H](O)C4)cnc23)cccc1-c1cccc(NC(=O)c2nc3c(n2C)CCN(C[C@H]2CC[C@H](C(=O)O)CC2)C3)c1Cl [Example 69, trans 4-((2-(2-chloro-3′-(7-(((R)-3-hydroxypyrrolidin-1-yl)methyl)pyrido[3,2-d]pyrimidin-4-ylamino)-2′-methylbiphenyl-3-ylcarbamoyl)-1-methyl-6,7-dihydro-1H-imidazo[4,5-c]pyridin-5(4H)-yl)methyl)cyclohexanecarboxylic acid]
Cc1c(-c2nc3c(s2)CN(C(=O)CN(C)C)C3)cccc1-c1cccc(Nc2nccc3cc(CN4CC[C@H](CC(=O)O)C4)cnc23)c1Cl [Example 91, (R)-2-(1-((8-((2-chloro-3′-(5-(dimethylglycyl)-5,6-dihydro-4H-pyrrolo[3,4-d]thiazol-2-yl)-2′-methyl-[1,1′-biphenyl]-3-yl)amino)-1,7-naphthyridin-3-yl)methyl)pyrrolidin-3-yl)acetic acid]
C[C@@]1(O)CCN(Cc2cnc3c(Nc4cccc(-c5cccc(Nc6nccc7cc(CN8CC[C@@H](O)C8)cnc67)c5Cl)c4Cl)nccc3c2)C1 [Example 76, (R)-1-((8-((2,2′-dichloro-3′-((3-(((R)-3-hydroxypyrrolidin-1-yl)methyl)-1,7-naphthyridin-8-yl)amino)-[1,1′-biphenyl]-3-yl)amino)-1,7-naphthyridin-3-yl)methyl)-3-methylpyrrolidin-3-ol]
Cc1c(Nc2nccc3cc(CN4CC[C@@](C)(O)C4)cnc23)cccc1-c1cccc(NC(=O)c2nc3c(n2C)CCN(C2CCC(C(=O)O)CC2)C3)c1Cl (stereo partly drawn) [Example 57, (R)-4-(2-(2-chloro-3′-(3-((3-hydroxy-3-methylpyrrolidin-1-yl)methyl)-1,7-naphthyridin-8-ylamino)-2′-methylbiphenyl-3-ylcarbamoyl)-1-methyl-6,7-dihydro-1H-imidazo[4,5-c]pyridin-5(4H)-yl)cyclohexanecarboxylic acid]
Cc1c(Nc2nccc3cc(CN4CC[C@@](C)(C(=O)O)C4)cnc23)cccc1-c1cccc(-c2nc3c(s2)CN(C(=O)CN(C)C)C3)c1C [Example 87, (R)-1-((8-((3′-(5-(dimethylglycyl)-5,6-dihydro-4H-pyrrolo[3,4-d]thiazol-2-yl)-2,2′-dimethyl-[1,1′-biphenyl]-3-yl)amino)-1,7-naphthyridin-3-yl)methyl)-3-methylpyrrolidine-3-carboxylic acid]
Cc1c(-c2nc3c(s2)CN(C(=O)CN2CC(O)C2)C3)cccc1-c1cccc(Nc2nccc3cc(CN4CC[C@@H](C(=O)O)C4)cnc23)c1Cl [Example 98, (R)-1-((8-((2-chloro-3′-(5-(2-(3-hydroxyazetidin-1-yl)acetyl)-5,6-dihydro-4H-pyrrolo[3,4-d]thiazol-2-yl)-2′-methyl-[1,1′-biphenyl]-3-yl)amino)-1,7-naphthyridin-3-yl)methyl)pyrrolidine-3-carboxylic acid]
Cc1c(Nc2nccc3cc(CN[C@@H](C)CO)cnc23)cccc1-c1cccc(NC(=O)c2nc3c(n2C)CCN(C[C@H]2CC[C@H](C(=O)O)CC2)C3)c1Cl [Example 50, trans-4-((2-(2-chloro-3′-(3-(((S)-1-hydroxypropan-2-ylamino)methyl)-1,7-naphthyridin-8-ylamino)-2′-methylbiphenyl-3-ylcarbamoyl)-1-methyl-6,7-dihydro-1H-imidazo[4,5-c]pyridin-5(4H)-yl)methyl)cyclohexanecarboxylic acid]
Cc1c(Nc2nccc3cc(CNCCO)cnc23)cccc1-c1cccc(Nc2nccc3cc(CNCCO)cnc23)c1C [Example 19, 2,2′-(((((2,2′-dimethyl-[1,1′-biphenyl]-3,3′-diyl)bis(azanediyl))bis(1,7-naphthyridine-8,3-diyl))bis(methylene))bis(azanediyl))bis(ethan-1-ol)]
Cc1c(NC(=O)c2nc3c(n2C)CCN(C2CCC(C)(C(=O)O)CC2)C3)cccc1-c1cccc(Nc2nccc3cc(CN4CC[C@@H](O)C4)cnc23)c1C (single isomer, unassigned) [Example 62-peak2]
Cn1c(C(=O)Nc2cccc(-c3cccc(Nc4nccc5cc(CN6CC[C@@H](O)C6)cnc45)c3Cl)c2Cl)nc2c1CCN(CC[C@H]1CC[C@H](C(=O)O)CC1)C2 [Example 65, Trans-4-(2-(2-(2,2′-dichloro-3′-(3-(((R)-3-hydroxypyrrolidin-1-yl)methyl)-1,7-naphthyridin-8-ylamino)biphenyl-3-ylcarbamoyl)-1-methyl-6,7-dihydro-1H-imidazo[4,5-c]pyridin-5(4H)-yl)ethyl)cyclohexanecarboxylic acid]
Cc1c(Nc2nccc3cc(CN[C@H](C)CO)cnc23)cccc1-c1cccc(NC(=O)c2nc3c(n2C)CCN(CC[C@H]2CC[C@H](C(=O)O)CC2)C3)c1Cl [Example 59, trans 4-(2-(2-(2-chloro-3′-(3-(((R)-1-hydroxypropan-2-ylamino)methyl)-1,7-naphthyridin-8-ylamino)-2′-methylbiphenyl-3-ylcarbamoyl)-1-methyl-6,7-dihydro-1H-imidazo[4,5-c]pyridin-5(4H)-yl)ethyl)cyclohexanecarboxylic acid]
Cc1c(Nc2nccc3cc(CN4CC[C@@H](C(=O)O)C4)cnc23)cccc1-c1cccc(-c2nc3c(o2)CN(C(=O)CN(C)C)C3)c1C [Example 84, (R)-1-((8-((3′-(5-(dimethylglycyl)-5,6-dihydro-4H-pyrrolo[3,4-d]oxazol-2-yl)-2,2′-dimethyl-[1,1′-biphenyl]-3-yl)amino)-1,7-naphthyridin-3-yl)methyl)pyrrolidine-3-carboxylic acid]
Cc1c(Nc2nccc3cc(CN4CC[C@@H](O)C4)cnc23)cccc1-c1cccc(Nc2ncnc3cc(CN(C)CCO)cnc23)c1C [Example 25, (R)-1-((8-(3′-(7-(((2-hydroxyethyl)(methyl)amino)methyl)pyrido[3,2-d]pyrimidin-4-ylamino)-2,2′-dimethylbiphenyl-3-ylamino)-1,7-naphthyridin-3-yl)methyl)pyrrolidin-3-ol]
Cc1c(Nc2nccc3cc(CN4CC[C@@H](O)C4)cnc23)cccc1-c1cccc(Nc2nccc3nc(CN4CC[C@@H](C(=O)O)C4)cnc23)c1C [Example 70, (R)-1-((5-(3′-(3-(((R)-3-hydroxypyrrolidin-1-yl)methyl)-1,7-naphthyridin-8-ylamino)-2,2′-dimethylbiphenyl-3-ylamino)pyrido[4,3-b]pyrazin-2-yl)methyl)pyrrolidine-3-carboxylic acid]
Cc1c(Nc2nccc3cc(CN4CC[C@@](C)(O)C4)cnc23)cccc1-c1cccc(NC(=O)c2nc3c(n2C)CCN(CC[C@H]2CC[C@H](C(=O)O)CC2)C3)c1Cl [Example 61, trans-4-(2-(2-(2-chloro-3′-(3-(((R)-3-hydroxy-3-methylpyrrolidin-1-yl)methyl)-1,7-naphthyridin-8-ylamino)-2′-methylbiphenyl-3-ylcarbamoyl)-1-methyl-6,7-dihydro-1H-imidazo[4,5-c]pyridin-5(4H)-yl)ethyl)cyclohexanecarboxylic acid]
Cc1c(Nc2nccc3cc(CN4CC[C@H](O)C4)cnc23)cccc1-c1cccc(Nc2nccc3cc(CN4CC[C@H](C(=O)O)C4)cnc23)c1C [Example 13, (S)-1-((8-((3′-((3-(((S)-3-hydroxypyrrolidin-1-yl)methyl)-1,7-naphthyridin-8-yl)amino)-2,2′-dimethyl-[1,1′-biphenyl]-3-yl)amino)-1,7-naphthyridin-3-yl)methyl)pyrrolidine-3-carboxylic acid]
CCN(C)CC(=O)N1Cc2nc(-c3cccc(-c4cccc(Nc5nccc6cc(CN7CC[C@@H](C(=O)O)C7)cnc56)c4Cl)c3C)sc2C1 [Example 90, (R)-1-((8-((2-chloro-3′-(5-(N-ethyl-N-methylglycyl)-5,6-dihydro-4H-pyrrolo[3,4-d]thiazol-2-yl)-2′-methyl-[1,1′-biphenyl]-3-yl)amino)-1,7-naphthyridin-3-yl)methyl)pyrrolidine-3-carboxylic acid]
O=C(O)[C@@H]1CCN(Cc2cnc3c(Nc4cccc(-c5cccc(Nc6nccc7cc(CN8CC[C@@H](O)C8)cnc67)c5Cl)c4Cl)nccc3c2)C1 [Example 78, (R)-1-((8-((2,2′-dichloro-3′-((3-(((R)-3-hydroxypyrrolidin-1-yl)methyl)-1,7-naphthyridin-8-yl)amino)-[1,1′-biphenyl]-3-yl)amino)-1,7-naphthyridin-3-yl)methyl)pyrrolidine-3-carboxylic acid]
Cn1cc(CNCCO)cc(C(=O)Nc2cccc(-c3cccc(Nc4nccc5cc(CN6CC(C(=O)O)C6)cnc45)c3Cl)c2Cl)c1=O [Example 17, 1-((8-(2,2′-dichloro-3′-(5-((2-hydroxyethylamino)methyl)-1-methyl-2-oxo-1,2-dihydropyridine-3-carboxamido)biphenyl-3-ylamino)-1,7-naphthyridin-3-yl)methyl)azetidine-3-carboxylic acid]
